We go through 12 molecules from ChEMBL document CHEMBL1201862, “PubChem BioAssay data set” (2004).

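Tested at 5 concentrations; 48 h exposure; 96-well plates; endpoints linearly interpolated, else capped at highest concentration. Here, GI50 denotes the concentration required for 50% inhibition of growth.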 Calls of active or inactive are those of the source. No stated cut-off is given here; in the data, active = GI50 up to about 1.1 µM and inactive = higher. Bounds are passed on as bounds.

Some test systems named below: A498; A549; HOP-92; HT-29; LOX IMVI; MOLT-4; Malme-3M; NCI-H226; NCI-H460; NCI-H522; SF-268; SN12C; SNB-19; SNB-75; SR; SW-620; UACC-257.
Holding throughout (experiment): inhibition of tumour cell growth, NCI panel, 48 h

With `O=C(CSC(=S)N1CCCCC1)Nc1nc2c(s1)CCCC2`, the GI50 in the test on A498 is > 100 µM (inactive); in the test with A549, 43.6 µM (inactive); with HOP-92, 39.1 µM (inactive); in the test with HT-29 it was 36.3 µM (inactive); in the test with LOX IMVI, 13.8 µM (inactive); in the test with MOLT-4 it was 11 µM (inactive). For the same molecule, the GI50 is > 100 µM (inactive) in the test on Malme-3M; 43.4 µM (inactive) with NCI-H226; 15.1 µM (inactive) in the test on NCI-H460; 29.5 µM (inactive) in the test with NCI-H522; 20.7 µM (inactive) in the test on SF-268; 31.3 µM (inactive) in the test on SN12C. Moreover, the GI50 in the test with SNB-19 is 71.1 µM (inactive); in the test with SNB-75 it was > 100 µM (inactive); in the test with SR, 6.4 µM (inactive); in the test with SW-620, 40.7 µM (inactive); in the test with UACC-257, 23.3 µM (inactive).
With `N=C(N)N/N=C/c1oc(-c2ccc(S(=O)(=O)O)o2)c(-c2ccc(S(=O)(=O)O)o2)c1[N+](=O)[O-]`, the GI50 in the test with A498, in the test with A549, with HOP-92, in the test on HT-29, with LOX IMVI and in the test on MOLT-4 was > 100 µM (inactive) throughout. Also, the GI50 in the test with Malme-3M, in the test with NCI-H226, in the test on NCI-H460, in the test with NCI-H522, in the test with SF-268 and with SN12C was > 100 µM (inactive) throughout. The GI50 in the test with SNB-19, in the test on SNB-75, in the test with SR, in the test with SW-620 and in the test on UACC-257 was > 100 µM (inactive) throughout.
Consider `COc1cc(OC(C)=O)cc2c(OC(C)=O)ccc(OC(C)=O)c12`, for which the GI50 with A498 is > 100 µM (inactive); with A549, > 100 µM (inactive); with HOP-92, 17.1 µM (inactive); in the test on HT-29, > 100 µM (inactive); in the test with LOX IMVI, > 100 µM (inactive); in the test on MOLT-4 it was > 100 µM (inactive). Moreover, the GI50 in the test with NCI-H460, with NCI-H522, in the test on SF-268, with SN12C, in the test with SNB-19 and in the test on SR was > 100 µM (inactive) throughout. Also, the GI50 in the test on SW-620 and with UACC-257 was > 100 µM (inactive) throughout.
Regarding `COc1cccc(/C=N\NC(=O)C(C)SC(C)C(=O)N/N=C/c2cccc(OC)c2)c1` (centres undefined), the GI50 is 13 µM (inactive) in the test on A498; 14.6 µM (inactive) in the test on A549; 20.8 µM (inactive) with HOP-92; > 66.8 µM (inactive) with HT-29; > 10 µM (inactive) in the test with LOX IMVI; 39.4 µM (inactive) in the test with MOLT-4. Moreover, the GI50 in the test with Malme-3M was 42 µM (inactive); in the test on NCI-H226 it was 21.2 µM (inactive); in the test on NCI-H460, 14.9 µM (inactive); in the test with NCI-H522, 22.3 µM (inactive); with SF-268, 33.4 µM (inactive); with SN12C, 19.6 µM (inactive). Moreover, the GI50 was 20.8 µM (inactive) in the test on SNB-19; 16.9 µM (inactive) in the test on SNB-75; 40.5 µM (inactive) in the test with SR; 57.8 µM (inactive) in the test with SW-620; 59.3 µM (inactive) in the test on UACC-257.
Regarding `O=C1NC2(CCCCC2)C2CCCCC=C12` (centres undefined), the GI50 with A498, with A549, with HOP-92, in the test on HT-29, with LOX IMVI and in the test with MOLT-4 was > 100 µM (inactive) each time. In addition, the GI50 in the test with Malme-3M, with NCI-H460, with NCI-H522, in the test with SF-268, with SN12C and in the test with SNB-19 was > 100 µM (inactive) throughout. Further, the GI50 with SNB-75, with SR, in the test on SW-620 and with UACC-257 was > 100 µM (inactive) each time.
On to `O=C(NC1CCCCC1)c1c(O)[nH]c(=S)[nH]c1=O`, for which the GI50 was > 100 µM (inactive) with A498; 52.4 µM (inactive) with A549; 96.8 µM (inactive) with HOP-92; > 100 µM (inactive) in the test on HT-29; > 100 µM (inactive) in the test with LOX IMVI; > 100 µM (inactive) in the test on MOLT-4. The GI50 in the test with Malme-3M was > 100 µM (inactive); with NCI-H226, > 100 µM (inactive); with NCI-H460 it was 57 µM (inactive); in the test on NCI-H522, > 100 µM (inactive); with SF-268 it was > 100 µM (inactive); with SN12C, > 100 µM (inactive). Moreover, the GI50 with SNB-19, with SNB-75, in the test on SR, in the test on SW-620 and with UACC-257 was > 100 µM (inactive) each time.
`COC(=O)/C=C(/C(=O)OC)C1(C)c2cc(C(=O)OC)c(C(=O)OC)c(N)c2C(=N)N1c1ccccc1` (centres undefined): the GI50 in the test on A498 was 31.1 µM (inactive); in the test on A549, 42 µM (inactive); in the test on HOP-92 it was 10.4 µM (inactive); in the test with HT-29 it was 16.7 µM (inactive); in the test with LOX IMVI, 18.2 µM (inactive); in the test with MOLT-4 it was 17.8 µM (inactive). Further, the GI50 with Malme-3M is 17.4 µM (inactive); with NCI-H226 it was 36.2 µM (inactive); in the test with NCI-H460 it was 39.5 µM (inactive); with NCI-H522, 14.2 µM (inactive); in the test on SF-268, 19.3 µM (inactive); in the test on SN12C it was 19.6 µM (inactive). In addition, the GI50 with SNB-19 is 49 µM (inactive); with SNB-75, 29.4 µM (inactive); with SR it was 22.8 µM (inactive); with UACC-257 it was > 10 µM (inactive).
For `COc1ccc(C(c2c(O)c3ccccc3n(C)c2=O)c2c(O)c3ccccc3n(C)c2=O)cc1`, the GI50 with A549 was 37.5 µM (inactive); in the test with HOP-92 it was 22.6 µM (inactive); in the test with HT-29 it was 24.3 µM (inactive); in the test with LOX IMVI, 37.2 µM (inactive); with MOLT-4, 35.9 µM (inactive); with Malme-3M it was 47.2 µM (inactive). The GI50 in the test with NCI-H226 was 24.5 µM (inactive); in the test with NCI-H460, > 100 µM (inactive); with NCI-H522, 9.77 µM (inactive); in the test on SF-268 it was 34.1 µM (inactive); in the test on SN12C it was 66.5 µM (inactive); with SNB-19 it was 39.5 µM (inactive). Also, the GI50 is 16.1 µM (inactive) in the test with SNB-75, 51.4 µM (inactive) in the test on SR, 57.4 µM (inactive) with SW-620 and 19.5 µM (inactive) in the test on UACC-257.
In the case of `CCOc1ccc2c(c1)[n+]([O-])c(-c1ccc([N+](=O)[O-])cc1)c(N)[n+]2[O-]`, the GI50 with A498 was > 100 µM (inactive); in the test on A549, > 100 µM (inactive); in the test with HOP-92, > 100 µM (inactive); with HT-29 it was > 100 µM (inactive); with MOLT-4 it was 52.2 µM (inactive); in the test on Malme-3M, > 100 µM (inactive). The GI50 in the test with NCI-H226 is > 100 µM (inactive); with NCI-H460, > 100 µM (inactive); in the test on NCI-H522 it was 56.4 µM (inactive); in the test on SF-268, > 100 µM (inactive); with SN12C, > 100 µM (inactive); with SNB-19 it was > 100 µM (inactive). Also, the GI50 with SNB-75 is 66.4 µM (inactive); in the test on SR, 67 µM (inactive); with SW-620, > 100 µM (inactive); with UACC-257, > 100 µM (inactive).
With `CNC(=O)OCc1cc2ccncc2c2c1[nH]c1ccccc12`, the GI50 in the test on A549 was > 27.4 µM (inactive); in the test with HOP-92, > 100 µM (inactive); with HT-29, > 25.5 µM (inactive); with LOX IMVI, > 22.1 µM (inactive); in the test on MOLT-4, 4.05 µM (inactive); in the test with Malme-3M it was > 100 µM (inactive). Further, the GI50 is > 100 µM (inactive) in the test on NCI-H226; > 20.7 µM (inactive) in the test with NCI-H460; 20.7 µM (inactive) in the test on NCI-H522; > 100 µM (inactive) with SN12C; > 53.7 µM (inactive) in the test with SNB-19; > 40.4 µM (inactive) in the test with SNB-75. Also, the GI50 was 2.12 µM (inactive) in the test with SR, 6.01 µM (inactive) with SW-620 and > 100 µM (inactive) in the test on UACC-257.
For `CC(C)(C)OC(=O)NC1CCC[C@H]1O` (some centres undefined), the GI50 in the test on A498, in the test on A549, in the test with HOP-92, with HT-29, in the test with LOX IMVI and in the test with MOLT-4 was > 100 µM (inactive) each time. Also, the GI50 with Malme-3M was 0.265 µM (active); in the test with NCI-H226, > 100 µM (inactive); with NCI-H460, > 100 µM (inactive); with NCI-H522, > 100 µM (inactive); in the test on SF-268, > 100 µM (inactive); in the test on SN12C it was > 100 µM (inactive). Also, the GI50 in the test with SNB-19 is > 100 µM (inactive); in the test on SNB-75, 47.3 µM (inactive); in the test with SR, > 100 µM (inactive); in the test with SW-620, > 100 µM (inactive); in the test on UACC-257 it was > 100 µM (inactive).
`CCOC(=O)c1ccc(N[C@@H]2c3cc4c(cc3C(C3=CC(=O)C(=O)C(OC)=C3)[C@H]3C(=O)OCC32)OCO4)cc1` (some centres undefined): the GI50 is 1.77 µM (inactive) with A498; 0.548 µM (active) in the test on A549; 2.04 µM (inactive) in the test on HOP-92; 4.49 µM (inactive) in the test on HT-29; 2.08 µM (inactive) in the test on LOX IMVI; 0.215 µM (active) in the test with MOLT-4. The GI50 is 2.53 µM (inactive) with Malme-3M; 0.173 µM (active) in the test on NCI-H460; 4.61 µM (inactive) in the test on NCI-H522; 1.77 µM (inactive) in the test with SF-268; 2 µM (inactive) in the test on SN12C; 2.49 µM (inactive) with SNB-19. For the same molecule, the GI50 in the test on SNB-75 was 1.58 µM (inactive); with SR it was 0.148 µM (active); in the test with SW-620 it was 2.34 µM (inactive); in the test with UACC-257, 9.08 µM (inactive).
